Data from paper PMC12203311, “Design, synthesis, in silico and in vitro evaluation of pyrrole–indole hybrids as dual tubulin and aromatase inhibitors with potent anticancer activities” (RSC Advances, 2025).

How the values were obtained:
CCRF-CEM = assay: NCI60 five-dose screen; assay type: cell-based; conditions: Homo sapiens, leukemia; for CC50: read-out: LC50 (the source's name)
HL-60 (TB) = assay: NCI60 five-dose screen; assay type: cell-based; conditions: Homo sapiens, leukemia; for CC50: read-out: LC50 (the source's name)
K-562 = assay: NCI60 five-dose screen; assay type: cell-based; conditions: Homo sapiens, K562, K-562, leukemia; for CC50: read-out: LC50 (the source's name)
RPMI-8226 = assay: NCI60 five-dose screen; assay type: cell-based; conditions: Homo sapiens, RPMI-8226, leukemia; for CC50: read-out: LC50 (the source's name)
NCI-H23 = assay: NCI60 five-dose screen; assay type: cell-based; conditions: Homo sapiens, NCI-H23, NSC lung cancer; for CC50: read-out: LC50 (the source's name)
HCC-2998 = assay: NCI60 five-dose screen; assay type: cell-based; conditions: Homo sapiens, HCC-2998, colon cancer; for CC50: read-out: LC50 (the source's name)
HCT-116 = assay: NCI60 five-dose screen; assay type: cell-based; conditions: Homo sapiens, HCT-116, colon cancer; for CC50: read-out: LC50 (the source's name)
KM12 = assay: NCI60 five-dose screen; assay type: cell-based; conditions: Homo sapiens, KM12, colon cancer; for CC50: read-out: LC50 (the source's name)
SW-620 = assay: NCI60 five-dose screen; assay type: cell-based; conditions: Homo sapiens, SW-620, colon cancer; for CC50: read-out: LC50 (the source's name)
SF-539 = assay: NCI60 five-dose screen; assay type: cell-based; conditions: Homo sapiens, SF-539, CNS cancer; for CC50: read-out: LC50 (the source's name)
SNB-75 = assay: NCI60 five-dose screen; assay type: cell-based; conditions: Homo sapiens, SNB-75, CNS cancer; for CC50: read-out: LC50 (the source's name)
U251 = assay: NCI60 five-dose screen; assay type: cell-based; conditions: Homo sapiens, U-251, U251, CNS cancer; for CC50: read-out: LC50 (the source's name)
MALME-3M = assay: NCI60 five-dose screen; assay type: cell-based; conditions: Homo sapiens, melanoma; for CC50: read-out: LC50 (the source's name)
MDA-MB-435 = assay: NCI60 five-dose screen; assay type: cell-based, human; conditions: Homo sapiens; for GI50: MDA-MB-435, melanoma
SK-MEL-2 = assay: NCI60 five-dose screen; assay type: cell-based; conditions: Homo sapiens, SK-MEL-2, melanoma; for CC50: read-out: LC50 (the source's name)
SK-MEL-28 = assay: NCI60 five-dose screen; assay type: cell-based; conditions: Homo sapiens, SK-MEL-28, melanoma; for CC50: read-out: LC50 (the source's name)
SK-MEL-5 = assay: NCI60 five-dose screen; assay type: cell-based, human; conditions: Homo sapiens; for CC50: SK-MEL-5, SK-MEL-5, melanoma, read-out: LC50 (the source's name); for GI50: SK-MEL-5, melanoma
UACC-62 = assay: NCI60 five-dose screen; assay type: cell-based; conditions: Homo sapiens, UACC-62, melanoma; for CC50: read-out: LC50 (the source's name)
IGROV1 = assay: NCI60 five-dose screen; assay type: cell-based; conditions: Homo sapiens, IGROV-1; IGROV1, ovarian cancer
OVCAR-3 = assay: NCI60 five-dose screen; assay type: cell-based; conditions: Homo sapiens, OVCAR-3, ovarian cancer; for CC50: read-out: LC50 (the source's name)
OVCAR-5 = assay: NCI60 five-dose screen; assay type: cell-based; conditions: Homo sapiens, OVCAR-5, ovarian cancer; for CC50: read-out: LC50 (the source's name)
SK-OV-3 = assay: NCI60 five-dose screen; assay type: cell-based; conditions: Homo sapiens, SK-OV-3, ovarian cancer; for CC50: read-out: LC50 (the source's name)
A498 = assay: NCI60 five-dose screen; assay type: cell-based; conditions: Homo sapiens, A498, renal cancer; for CC50: read-out: LC50 (the source's name)
RXF 393 = assay: NCI60 five-dose screen; assay type: cell-based; conditions: Homo sapiens, RXF 393, renal cancer; for CC50: read-out: LC50 (the source's name)
TK-10 = assay: NCI60 five-dose screen; assay type: cell-based; conditions: Homo sapiens, TK-10, renal cancer; for CC50: read-out: LC50 (the source's name)
UO-31 = assay: NCI60 five-dose screen; assay type: cell-based; conditions: Homo sapiens, UO-31, renal cancer; for CC50: read-out: LC50 (the source's name)
MCF7 = assay: NCI60 five-dose screen; assay type: cell-based; conditions: Homo sapiens, MCF7, breast cancer; for CC50: read-out: LC50 (the source's name)
MDA-MB-231/ATCC = assay: NCI60 five-dose screen; assay type: cell-based; conditions: Homo sapiens, breast cancer; for CC50: read-out: LC50 (the source's name)
HS 578T = assay: NCI60 five-dose screen; assay type: cell-based; conditions: Homo sapiens, breast cancer; for CC50: read-out: LC50 (the source's name)
T-47D = assay: NCI60 five-dose screen; assay type: cell-based; conditions: Homo sapiens, T47D, breast cancer; for CC50: read-out: LC50 (the source's name)
[1] = tested on: T47D breast cancer cell line; assay: Cytotoxicity MTT assay, T47D; assay type: cell-based, human
Summary of the method: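 Seed 10 000 cells per well and let them grow overnight. Treat with compounds in medium for 48 h at 37 °C under 5% CO2. Replace medium with MTT at 0.5 mg mL^−1 for 3 h, dissolve formazan in DMSO, measure at 570 nm, normalise to DMSO control.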

O=C(N/N=C/c1ccc[nH]1)c1[nH]c2ccc(Br)cc2c1-c1ccccc1 [Derivative 3a, (E)-N′-((1H-Pyrrol-2-yl)methylene)-5-bromo-3-phenyl-1H-indole-2-carbohydrazide]
GI50 (CCRF-CEM): 0.345 µM
CC50 (CCRF-CEM): > 100 µM
GI50 (HL-60 (TB)): 0.242 µM
CC50 (HL-60 (TB)): > 100 µM
GI50 (K-562): 0.202 µM
CC50 (K-562): > 100 µM
GI50 (RPMI-8226): 0.337 µM
CC50 (RPMI-8226): > 100 µM
GI50 (NCI-H23): 0.504 µM
CC50 (NCI-H23): 37.7 µM
GI50 (HCC-2998): 0.415 µM
CC50 (HCC-2998): 19.5 µM
GI50 (HCT-116): 0.28 µM
CC50 (HCT-116): 32.3 µM
GI50 (KM12): 0.388 µM
CC50 (KM12): 56.5 µM
GI50 (SW-620): 0.352 µM
CC50 (SW-620): 37.4 µM
GI50 (SF-539): 0.202 µM
CC50 (SF-539): 14.6 µM
GI50 (SNB-75): 0.136 µM
CC50 (SNB-75): 16 µM
GI50 (U251): 0.375 µM
CC50 (U251): 12.4 µM
GI50 (MALME-3M): 0.32 µM
CC50 (MALME-3M): 30.9 µM
GI50 (MDA-MB-435): 0.105 µM
GI50 (SK-MEL-2): 0.357 µM
CC50 (SK-MEL-2): 38.8 µM
GI50 (SK-MEL-28): 0.488 µM
CC50 (SK-MEL-28): 37.4 µM
CC50 (SK-MEL-5): 15.7 µM
GI50 (SK-MEL-5): 0.302 µM
GI50 (UACC-62): 0.099 µM
CC50 (UACC-62): 8.03 µM
GI50 (IGROV1): 0.404 µM
LC50 (concentration causing 50% net cell kill) (IGROV1): 14.6 µM
GI50 (OVCAR-3): 0.423 µM
CC50 (OVCAR-3): 35.3 µM
GI50 (OVCAR-5): 0.437 µM
CC50 (OVCAR-5): 30.8 µM
GI50 (SK-OV-3): 0.702 µM
CC50 (SK-OV-3): 31.8 µM
GI50 (A498): 2.57 µM
CC50 (A498): 41.6 µM
GI50 (RXF 393): 0.339 µM
CC50 (RXF 393): 35.1 µM
GI50 (TK-10): 2.46 µM
CC50 (TK-10): 37.1 µM
GI50 (UO-31): 0.431 µM
CC50 (UO-31): 20.2 µM
GI50 (MCF7): 0.136 µM
CC50 (MCF7): 29.1 µM
GI50 (MDA-MB-231/ATCC): 0.396 µM
CC50 (MDA-MB-231/ATCC): 21 µM
GI50 (HS 578T): 0.452 µM
CC50 (HS 578T): > 100 µM
GI50 (T-47D): 0.341 µM
CC50 (T-47D): 51.3 µM
IC50 ([1]; Homo sapiens, T47D, MTT, 48 hours): 1.6 ± 1 µM

O=C(N/N=C/c1cc[nH]c1)c1[nH]c2ccc(Br)cc2c1-c1ccccc1 [Derivative 3b, (E)-N′-((1H-Pyrrol-3-yl)methylene)-5-bromo-3-phenyl-1H-indole-2-carbohydrazide]
GI50 (CCRF-CEM): 0.821 µM
CC50 (CCRF-CEM): > 100 µM
GI50 (HL-60 (TB)): 0.598 µM
CC50 (HL-60 (TB)): > 100 µM
GI50 (K-562): 0.429 µM
CC50 (K-562): 97 µM
GI50 (RPMI-8226): 1.43 µM
CC50 (RPMI-8226): > 100 µM
GI50 (NCI-H23): 1.87 µM
CC50 (NCI-H23): 33.9 µM
GI50 (HCC-2998): 1.55 µM
CC50 (HCC-2998): 32.7 µM
GI50 (HCT-116): 0.991 µM
CC50 (HCT-116): > 100 µM
GI50 (KM12): 0.996 µM
CC50 (KM12): 37.8 µM
GI50 (SW-620): 0.548 µM
CC50 (SW-620): 49.4 µM
GI50 (SF-539): 0.869 µM
CC50 (SF-539): 17 µM
GI50 (SNB-75): 0.88 µM
CC50 (SNB-75): 32 µM
GI50 (U251): 2.08 µM
CC50 (U251): 40.8 µM
GI50 (MALME-3M): 3.46 µM
CC50 (MALME-3M): 48.3 µM
CC50 (MDA-MB-435; MDA-MB-435, MDA-MB-435, melanoma, read-out: LC50 (the source's name)): 15.8 µM
GI50 (MDA-MB-435): 0.463 µM
GI50 (SK-MEL-2): 2.48 µM
CC50 (SK-MEL-2): 38.4 µM
GI50 (SK-MEL-28): 5.75 µM
CC50 (SK-MEL-28): 44.4 µM
CC50 (SK-MEL-5): 14.6 µM
GI50 (SK-MEL-5): 1.1 µM
GI50 (UACC-62): 1.03 µM
CC50 (UACC-62): 41.3 µM
GI50 (IGROV1): 1.27 µM
GI50 (OVCAR-3): 1.09 µM
CC50 (OVCAR-3): 31.9 µM
GI50 (OVCAR-5): 1.74 µM
CC50 (OVCAR-5): 38.5 µM
GI50 (SK-OV-3): 5.59 µM
CC50 (SK-OV-3): 71.9 µM
GI50 (A498): 12.7 µM
CC50 (A498): 54.6 µM
GI50 (RXF 393): 1.78 µM
CC50 (RXF 393): 46.5 µM
GI50 (TK-10): 11.1 µM
CC50 (TK-10): 58 µM
GI50 (UO-31): 1.66 µM
CC50 (UO-31): 41 µM
GI50 (MCF7): 0.436 µM
CC50 (MCF7): 49.8 µM
GI50 (MDA-MB-231/ATCC): 1.62 µM
CC50 (MDA-MB-231/ATCC): 26.4 µM
GI50 (HS 578T): 1.31 µM
CC50 (HS 578T): > 100 µM
GI50 (T-47D): 3.49 µM
CC50 (T-47D): > 100 µM
activity against T47D in two-dose screen ([1]; 10 µM and 50 µM): weak activity
